Assays:
estrogen receptors = molecular target: T1, estrogen receptors (Rattus norvegicus, UniProt P06211); test: Relative binding affinity (RBA) to estrogen receptors, 3H-estradiol competition assay; parameters: key: % of 17-beta-estradiol binding affinity (estradiol = 100); settings: relative to 17-beta-estradiol (=100, percentage value); rat uterine cytosol, 3H-E2, 18 hrs at 4° C.
T1 construct: Aliquot of uterine cytosol (200 μl; 2 uteri per ml) prepared in TEA buffer; from tissue; host or cells: uterine cytosol of immature estradiol-primed 20-21 day old rats
T1 sequence (P06211 1-600): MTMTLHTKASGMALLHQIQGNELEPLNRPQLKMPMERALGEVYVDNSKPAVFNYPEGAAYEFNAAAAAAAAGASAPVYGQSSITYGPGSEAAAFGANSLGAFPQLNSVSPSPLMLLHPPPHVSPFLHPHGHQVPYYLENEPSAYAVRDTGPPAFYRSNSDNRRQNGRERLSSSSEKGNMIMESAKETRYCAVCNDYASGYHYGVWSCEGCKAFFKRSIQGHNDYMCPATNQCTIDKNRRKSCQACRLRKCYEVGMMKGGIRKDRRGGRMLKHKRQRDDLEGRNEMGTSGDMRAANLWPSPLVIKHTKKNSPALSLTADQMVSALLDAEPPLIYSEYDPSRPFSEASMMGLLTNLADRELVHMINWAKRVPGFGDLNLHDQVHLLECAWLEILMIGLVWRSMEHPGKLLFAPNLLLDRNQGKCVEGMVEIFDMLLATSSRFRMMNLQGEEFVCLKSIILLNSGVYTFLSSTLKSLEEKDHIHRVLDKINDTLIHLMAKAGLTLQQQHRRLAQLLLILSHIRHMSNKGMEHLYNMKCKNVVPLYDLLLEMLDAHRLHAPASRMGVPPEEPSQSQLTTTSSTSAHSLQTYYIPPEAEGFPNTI
Procedure: The relative binding affinity (RBA) of the compounds for estrogen receptor is determined by competition assay, employing ^3H-estradiol (^3H-E2) as the radioligand. The test ligands and ^3H-E2 are incubated at 4° C. with cystol estrogen receptors obtained from uteri of immature estradoil-primed (1 μg/rat 24 h before autopsy) 20-21 days old rats. Aliquot of uterine cytosol (200 μl; 2 uteri per ml) prepared in TEA buffer (10 mM Tris, 1.5 mM EDTA, 0.02% sodium azide, pH 7.4) are incubated in duplicate with a fixed concentration of ^3H-E2 in the absence or presence of various concentrations of the competitor substance dissolved in 30 μl of the TEA buffer containing DMF as co-solvent (final concentration of DMF in the incubation mixture never exceeded 5%) for 18 hrs at 4° C. At the end of this period, dextran coated charcoal (5% Norit 0.5% dextran) suspension in 100 μl of TEA buffer is added to each tube, briefly vortexed and allowed to stand for 15 minutes at 4° C. The mixture is centrifuged at 800 g for 10 minutes and the supernatants counted for radioactivity in 10 ml of a dioxane-based scintillation fluid. RBA of the text compound is computed from a graph plotted between percent bound radioactivity verses log concentration of the test substance. […] This when multiplied with 100 gives the percentage value designated as RBA.

adult female rats = test: Post-coital antifertility efficacy in adult female rats; format: in vivo, rat; settings: daily dose 10 mg/kg, oral, days 1-7 post-coitum
From the text: Adult female rats are caged overnight with coeval males of proven fertility and their vaginal smears are checked on the following morning. The day of presence of spermatozoa in the vaginal smear is taken as day 1 of pregnancy. Mated rats are isolated and randomized into various treatment groups and treated orally with the compound of invention or the vehicle on days 1-7/1-5 post-coitum. Animals of all the groups are autopsied on day 10 post-coitum and number and status of corpora lutea and implantation sites in each rat are recorded. The compounds of the present invention are considered active if there is complete absence of implantations in the uterus of all rats, in comparison to presence of normal implantations in the uterus of rats of vehicle control group.

[1] = tested on: immature ovariectomized rats; test: Estrogen agonistic activity: increase in uterine weight in immature ovariectomized rats; format: in vivo, rat; settings: Rattus norvegicus, 72 h, daily dose 10 mg/kg, 3 days; percent of ovariectomized + vehicle group
Procedure: Twenty-one-day-old immature female rats are bilaterally ovariectomized under light ether anaesthesia and, after post-operative rest for 7 days, are randomized into different treatment groups. Each rat receives the compound of the invention once daily for 3 consecutive days on days 28-30 of age. A separate group of animals receiving only the vehicle for similar duration serves as control. A autopsy 24 h after the last treatment on day 31 of age, vaginal smear of each rat is taken and uterus is carefully exised, gently blotted, weighed and fixed for histology and histomorphometry using image analysis. Premature opening of vagina, cornification of vaginal epitelium, increase in uterine fresh weight, total uterine and endometrial area and uterine luminal epithelial cell height are taken as parameters for evaluation of estrogen agonistic activity in comparision to rats of vehicle control group.

[2] = tested on: immature ovariectomized rats; test: Estrogen antagonistic activity: inhibition in 17α-ethynylestradiol induced uterine weight gain in immature ovariectomized rats; format: in vivo, rat; settings: Rattus norvegicus, 72 h; daily dose 10 mg/kg with 0.02 mg/kg 17-alfa-ethynylestradiol, 3 days; read-out: Percent inhibition in 17α-ethynylestradiol induced uterine weight gain
Procedure: Twenty-one-day-old immature female rats are bilaterally ovariectomized under light ether anaesthesia and after post-operative rest for 7 days, are randomized into different treatment groups. Each rat receives the compounds of the invention and 0.02 mg/kg dose of 17-alfa-ethynylestradiol in 10% ethanol-distilled water once daily for 3 consecutive days on days 28-30 of age. A separate group of animals receiving only 17-alfa-ethynylestradiol (0.02 mg/kg) in 10% ethanol-distilled water for similar duration are used for comparison. At autopsy on day 31 of age, vaginal smear of each rat is taken and uterus is carefully excised, gently blotted, weighed and fixed for histology and histomorphometry using image analysis. Inhibition in 17-alfa-ethynylestradiol-induced premature opening of vagina, cornification of vaginal epithelium, increase in uterine fresh weight, total uterine and endometrial area and uterine luminal epithelial cell height are taken as parameters for evaluation of estrogen antagonistic activity.

[3] = tested on: chick fetal bones in culture; test: Inhibition in PTH-induced resorption of 45Ca from chick fetal bones in culture (antiresorptive activity in vitro); format: cell-based; settings: Gallus gallus, 96 h, 100 μM; PTH-induced 45Ca resorption, 96 h culture; read-out: T/C ratio
Procedure: 5 μl of each concentration are used for evaluation of antiresorptive activity in vitro. In control experiments, 5 μl of appropriate solvent is used in lieu of the test compound. Femur bones are isolated from chick embryos on day 11 post-ovulation. The adhering soft connective tissue is completely removed. Each femur bone is then placed in a drop of phosphate buffered saline (PBS) and is transferred to BGJb culture medium containing ^45CaCl2 and incubated for 2 h. Labeled femur bones are washed 2-3 times with PBS and transferred to BGJb medium containing parathyroid hormone and cultured for 96 h in the presence or absence of the compound of invention or the vehicle in BGJb medium. Contralateral femur of each fetus serves as corresponding control. Culture medium with the respective treatment in each well is changed after 48 h. On termination of the culture at 96 h, bones are transferred to 0.1 N HCl for 24 h. Radioactivity due to ^45Ca in the spent medium collected at 48 and 96 h of culture and HCl extract at 96 h of culture is quantified by Liquid Scintillation Spectrophotometer in 10 ml of the scintillation fluid. Bone resorbing activity is expressed as percentage of ^45Ca released into the culture medium and the effect of the compound of invention as percent of the corresponding contra-lateral control or T/C ratio as shown below: [formula]
Appropriate solvents are selected from solvents like water, physiological saline, phosphate buffered saline, phosphate buffer, DMSO alone or in a suitable combination thereof.

SMILES	RBA (estrogen receptors)	melting point [°C]	% Efficacy (adult female rats)	change in vivo at 10 mg/kg [1] [%]	inhibition in vivo at 10 mg/kg/day [2] [%]	activity at 100 µM [3] [%]
CCCCN(C)CCCCCn1c2c(c3cc(O)ccc31)CCSc1cc(O)ccc1-2 [Example number 37]	0.36	134 to 136	–	–	–	–
c1ccc2c(c1)SCCc1c-2n(CCN2CCCCC2)c2ccccc12 [Example number 5, 12-[2-(Piperidine-1-yl)ethyl]-6,7-dihydro-12H-benzothiepino [5,4-b]indole]	–	118	Inactive	–	–	–
c1ccc2c(c1)OCCc1c-2n(CCN2CCCCC2)c2ccccc12 [Example number 45, 12-[2-(Piperidine-1-yl)ethyl]-6,7-dihydro-12H-benzoxepino[5,4-b]indole]	–	103	Inactive	–	–	–
c1ccc2c(c1)OCCc1c-2n(CCCN2CCCCC2)c2ccccc12 [Example number 47, 12-[3-(Piperidine-1-yl)propyl]-6,7-dihydro-12H-benzoxepino[5,4-b]indole]	–	65 to 66	Inactive	8.31	17.2	–
Oc1ccc2c(c1)c1c(n2CCCCCN2CCCC2)-c2ccccc2SCC1 [Example number 30, 9-Hydroxy-12-[5-(pyrrolidine-1-yl)pentyl]-6,7-dihydro-12H-benzothiepino [5,4-b]indole]	<0.001	217 to 219	Inactive	–	–	–
c1ccc2c(c1)SCCc1c-2n(Cc2ccc(OCCCN3CCCCC3)cc2)c2ccccc12 [Example number 41, 12-[4-(3-Piperidin-1-yl-propyloxy)benzyl]-6,7-dihydro-12H-benzothiepino [5,4-b]indole]	–	70 to 71	Inactive	42.9	6.41	108
c1ccc2c(c1)OCCc1c-2n(Cc2ccc(OCCCN3CCCCC3)cc2)c2ccccc12 [Example number 58, 12-[4-(3-Piperidin-1-yl-propyloxy)benzyl]-6,7-dihydro-12H-benzoxepino[5,4-b]indole]	–	129 to 130	Inactive	7.85	11.4	98

Reference: patent US20050282863A1, “Novel-N substituted dihydrobenzothiepino, dihydrobenzoxepino and tetrahydro benzocyclohepta indoles as selective estrogen receptor modulators” (Council of Scientific & Industrial Research, priority 2004, published 2005)
